Among the targets are Mu-type opioid receptor (Rattus norvegicus, UniProt P33535); Histamine H1 receptor (Cavia porcellus, UniProt P31389); D(2) dopamine receptor (Rattus norvegicus, UniProt P61169); D(1A) dopamine receptor (Rattus norvegicus, UniProt P18901); Glutamate receptor 3 (Rattus norvegicus, UniProt P19492).
Assay [1] concerns the target 5-hydroxytryptamine receptor 2A (Rattus norvegicus, UniProt P14842).
Assay [2] deals with Kappa-type opioid receptor (Rattus norvegicus, UniProt P34975).
Assay [3] has as its target T1, 5-hydroxytryptamine receptor 1A (Rattus norvegicus, UniProt P19327).
T1 sequence (P19327 whole entry): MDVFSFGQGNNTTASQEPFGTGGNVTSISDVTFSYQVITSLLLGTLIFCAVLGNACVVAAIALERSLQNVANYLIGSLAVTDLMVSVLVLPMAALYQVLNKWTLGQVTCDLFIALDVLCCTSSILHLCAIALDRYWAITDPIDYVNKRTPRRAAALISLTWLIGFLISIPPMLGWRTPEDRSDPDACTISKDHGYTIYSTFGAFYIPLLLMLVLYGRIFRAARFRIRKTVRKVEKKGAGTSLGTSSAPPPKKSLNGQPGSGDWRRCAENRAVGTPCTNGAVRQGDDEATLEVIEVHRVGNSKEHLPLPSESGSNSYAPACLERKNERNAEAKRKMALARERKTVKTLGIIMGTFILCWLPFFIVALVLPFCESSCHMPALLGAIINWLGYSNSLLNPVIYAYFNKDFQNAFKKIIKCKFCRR

In assay [4] the target is T2, Alpha-1A adrenergic receptor (Rattus norvegicus, UniProt P43140).
T2 sequence (P43140 whole entry): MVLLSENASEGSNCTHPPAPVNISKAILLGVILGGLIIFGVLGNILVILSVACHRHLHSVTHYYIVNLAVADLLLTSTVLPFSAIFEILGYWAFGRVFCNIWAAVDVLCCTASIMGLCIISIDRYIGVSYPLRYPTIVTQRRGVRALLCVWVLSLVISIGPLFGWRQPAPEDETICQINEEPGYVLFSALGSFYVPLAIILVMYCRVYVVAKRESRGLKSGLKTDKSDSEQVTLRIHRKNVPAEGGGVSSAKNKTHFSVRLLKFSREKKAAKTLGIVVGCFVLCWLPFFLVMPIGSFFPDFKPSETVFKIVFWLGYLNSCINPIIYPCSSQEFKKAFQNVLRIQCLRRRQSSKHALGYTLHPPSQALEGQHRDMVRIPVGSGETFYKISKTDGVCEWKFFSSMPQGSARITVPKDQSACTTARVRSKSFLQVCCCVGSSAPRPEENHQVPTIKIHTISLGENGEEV

In assay [5] the target is Gamma-aminobutyric acid receptor subunit alpha-1 (Rattus norvegicus, UniProt P62813).
Assay [6] addresses T3, Alpha-2C adrenergic receptor (Rattus norvegicus, UniProt P22086).
T3 sequence (P22086 whole entry): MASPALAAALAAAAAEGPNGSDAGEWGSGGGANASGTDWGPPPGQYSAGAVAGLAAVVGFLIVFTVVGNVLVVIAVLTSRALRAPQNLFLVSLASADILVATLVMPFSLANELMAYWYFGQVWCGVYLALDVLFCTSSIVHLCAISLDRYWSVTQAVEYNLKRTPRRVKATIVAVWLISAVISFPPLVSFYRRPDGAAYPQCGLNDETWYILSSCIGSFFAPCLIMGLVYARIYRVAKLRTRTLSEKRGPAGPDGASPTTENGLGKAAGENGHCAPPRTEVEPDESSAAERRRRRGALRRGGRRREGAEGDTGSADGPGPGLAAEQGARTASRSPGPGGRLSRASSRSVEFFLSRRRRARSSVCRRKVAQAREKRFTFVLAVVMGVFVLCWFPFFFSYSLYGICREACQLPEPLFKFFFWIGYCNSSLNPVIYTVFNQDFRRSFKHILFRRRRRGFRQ

The target of assay [7] is T4, Muscarinic acetylcholine receptor M2 (Rattus norvegicus, UniProt P10980).
T4 sequence (P10980 whole entry): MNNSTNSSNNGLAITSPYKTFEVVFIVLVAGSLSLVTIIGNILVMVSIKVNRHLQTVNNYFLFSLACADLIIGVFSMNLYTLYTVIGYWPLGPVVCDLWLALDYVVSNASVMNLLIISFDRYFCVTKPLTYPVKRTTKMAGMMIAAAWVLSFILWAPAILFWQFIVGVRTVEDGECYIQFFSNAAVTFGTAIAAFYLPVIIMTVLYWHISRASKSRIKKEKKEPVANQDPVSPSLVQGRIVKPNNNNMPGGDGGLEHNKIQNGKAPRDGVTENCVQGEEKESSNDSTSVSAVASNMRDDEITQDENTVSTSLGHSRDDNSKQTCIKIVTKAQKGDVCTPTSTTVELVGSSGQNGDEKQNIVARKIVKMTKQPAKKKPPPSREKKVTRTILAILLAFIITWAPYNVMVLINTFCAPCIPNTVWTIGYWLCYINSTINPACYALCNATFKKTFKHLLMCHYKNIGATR

In assay [8] the target is T5, Muscarinic acetylcholine receptor M1 (Rattus norvegicus, UniProt P08482).
T5 sequence (P08482 whole entry): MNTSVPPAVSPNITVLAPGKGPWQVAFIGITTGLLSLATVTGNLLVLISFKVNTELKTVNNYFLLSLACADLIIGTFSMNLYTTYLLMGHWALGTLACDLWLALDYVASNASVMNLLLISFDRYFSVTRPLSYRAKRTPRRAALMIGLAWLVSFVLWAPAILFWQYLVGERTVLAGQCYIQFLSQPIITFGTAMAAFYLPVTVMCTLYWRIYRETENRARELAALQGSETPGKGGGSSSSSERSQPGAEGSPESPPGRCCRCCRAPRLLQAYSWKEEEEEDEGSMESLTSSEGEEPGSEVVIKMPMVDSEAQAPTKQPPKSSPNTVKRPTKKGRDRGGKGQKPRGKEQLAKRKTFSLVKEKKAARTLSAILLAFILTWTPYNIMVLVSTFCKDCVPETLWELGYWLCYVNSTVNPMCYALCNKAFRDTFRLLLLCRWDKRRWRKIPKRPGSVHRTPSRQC

Assay [9] has as its target Muscarinic acetylcholine receptor M3 (Rattus norvegicus, UniProt P08483).
For assay [10], the target named is Sigma non-opioid intracellular receptor 1 (Rattus norvegicus, UniProt Q9R0C9).
Assay [11] concerns the target Beta-2 adrenergic receptor (Rattus norvegicus, UniProt P10608).
For assay [12], the target named is T6, Gastrin/cholecystokinin type B receptor (Rattus norvegicus, UniProt P30553).
T6 sequence (P30553 whole entry): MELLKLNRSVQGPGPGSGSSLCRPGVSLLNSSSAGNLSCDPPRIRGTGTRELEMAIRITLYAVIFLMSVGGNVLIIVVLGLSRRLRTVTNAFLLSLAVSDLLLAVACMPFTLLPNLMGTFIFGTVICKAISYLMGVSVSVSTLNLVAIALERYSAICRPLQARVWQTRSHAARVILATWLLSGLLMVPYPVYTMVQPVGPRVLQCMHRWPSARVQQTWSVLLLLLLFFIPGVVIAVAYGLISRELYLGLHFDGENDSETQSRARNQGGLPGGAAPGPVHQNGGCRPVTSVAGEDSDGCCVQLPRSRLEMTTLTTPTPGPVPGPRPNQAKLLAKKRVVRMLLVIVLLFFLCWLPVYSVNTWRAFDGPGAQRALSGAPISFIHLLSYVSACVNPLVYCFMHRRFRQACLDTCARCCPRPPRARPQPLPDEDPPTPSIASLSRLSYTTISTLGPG

Where “and” joins values, the source holds several entries; their conditions need not be identical. Equal entries are not always repeated.

Sigma non-opioid intracellular receptor 1, sequence (Q9R0C9 whole entry): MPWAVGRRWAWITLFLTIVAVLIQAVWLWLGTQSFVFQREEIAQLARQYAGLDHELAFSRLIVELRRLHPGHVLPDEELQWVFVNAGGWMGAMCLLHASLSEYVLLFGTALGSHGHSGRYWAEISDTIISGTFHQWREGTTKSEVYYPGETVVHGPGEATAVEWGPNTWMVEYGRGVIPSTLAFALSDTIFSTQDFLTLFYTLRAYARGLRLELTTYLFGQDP
D(1A) dopamine receptor, sequence (P18901 whole entry): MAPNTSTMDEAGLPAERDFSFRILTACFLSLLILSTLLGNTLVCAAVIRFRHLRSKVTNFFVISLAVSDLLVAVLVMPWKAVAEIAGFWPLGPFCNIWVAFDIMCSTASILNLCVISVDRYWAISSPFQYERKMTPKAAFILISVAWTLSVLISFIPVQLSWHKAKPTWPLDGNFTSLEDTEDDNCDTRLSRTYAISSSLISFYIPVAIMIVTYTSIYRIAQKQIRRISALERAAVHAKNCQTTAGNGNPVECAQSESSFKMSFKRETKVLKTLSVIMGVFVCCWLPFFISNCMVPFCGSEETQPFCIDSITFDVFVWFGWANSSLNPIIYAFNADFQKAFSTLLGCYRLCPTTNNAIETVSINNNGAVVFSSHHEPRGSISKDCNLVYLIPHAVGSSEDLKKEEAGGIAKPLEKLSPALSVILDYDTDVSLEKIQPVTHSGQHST
Muscarinic acetylcholine receptor M3, sequence (P08483 whole entry): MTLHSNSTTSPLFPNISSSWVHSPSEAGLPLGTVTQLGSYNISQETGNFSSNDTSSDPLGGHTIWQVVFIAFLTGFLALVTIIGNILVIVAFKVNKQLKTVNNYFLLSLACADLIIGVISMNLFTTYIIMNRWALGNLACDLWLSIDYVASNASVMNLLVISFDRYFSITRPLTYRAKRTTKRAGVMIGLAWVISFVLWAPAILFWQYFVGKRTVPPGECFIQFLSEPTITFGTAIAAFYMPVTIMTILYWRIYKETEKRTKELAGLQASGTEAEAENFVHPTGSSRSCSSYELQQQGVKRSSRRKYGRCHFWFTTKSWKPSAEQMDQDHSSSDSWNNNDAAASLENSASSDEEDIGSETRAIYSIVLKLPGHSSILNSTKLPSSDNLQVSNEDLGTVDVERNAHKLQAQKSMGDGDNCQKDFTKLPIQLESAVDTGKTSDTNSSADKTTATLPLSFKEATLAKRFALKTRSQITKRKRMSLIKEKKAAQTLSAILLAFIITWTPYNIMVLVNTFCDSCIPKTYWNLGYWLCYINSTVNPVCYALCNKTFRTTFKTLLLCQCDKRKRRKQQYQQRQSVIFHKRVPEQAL
5-hydroxytryptamine receptor 2A, sequence (P14842 whole entry): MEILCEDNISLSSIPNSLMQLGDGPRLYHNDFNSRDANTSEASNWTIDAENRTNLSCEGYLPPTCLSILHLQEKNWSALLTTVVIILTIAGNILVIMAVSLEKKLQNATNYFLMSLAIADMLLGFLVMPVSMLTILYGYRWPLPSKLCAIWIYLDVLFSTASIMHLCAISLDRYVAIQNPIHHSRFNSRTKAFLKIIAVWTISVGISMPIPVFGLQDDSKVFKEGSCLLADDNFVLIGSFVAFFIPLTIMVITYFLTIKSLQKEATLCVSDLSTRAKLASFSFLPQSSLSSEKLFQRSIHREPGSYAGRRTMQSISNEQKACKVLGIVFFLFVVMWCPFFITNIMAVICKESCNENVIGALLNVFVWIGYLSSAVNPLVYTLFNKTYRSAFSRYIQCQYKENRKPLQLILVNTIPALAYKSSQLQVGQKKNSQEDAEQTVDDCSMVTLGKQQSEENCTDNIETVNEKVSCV
Kappa-type opioid receptor, sequence (P34975 whole entry): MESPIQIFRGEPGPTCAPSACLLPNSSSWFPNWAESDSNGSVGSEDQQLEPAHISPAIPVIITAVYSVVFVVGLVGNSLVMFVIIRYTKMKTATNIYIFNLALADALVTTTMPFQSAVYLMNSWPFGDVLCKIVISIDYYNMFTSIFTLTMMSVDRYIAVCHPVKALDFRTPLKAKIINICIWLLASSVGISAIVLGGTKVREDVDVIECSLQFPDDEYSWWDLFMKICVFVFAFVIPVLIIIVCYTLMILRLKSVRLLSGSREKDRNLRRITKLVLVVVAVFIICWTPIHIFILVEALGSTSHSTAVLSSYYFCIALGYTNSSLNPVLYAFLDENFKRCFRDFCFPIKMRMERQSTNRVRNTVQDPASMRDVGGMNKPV
Glutamate receptor 3, sequence (P19492 whole entry): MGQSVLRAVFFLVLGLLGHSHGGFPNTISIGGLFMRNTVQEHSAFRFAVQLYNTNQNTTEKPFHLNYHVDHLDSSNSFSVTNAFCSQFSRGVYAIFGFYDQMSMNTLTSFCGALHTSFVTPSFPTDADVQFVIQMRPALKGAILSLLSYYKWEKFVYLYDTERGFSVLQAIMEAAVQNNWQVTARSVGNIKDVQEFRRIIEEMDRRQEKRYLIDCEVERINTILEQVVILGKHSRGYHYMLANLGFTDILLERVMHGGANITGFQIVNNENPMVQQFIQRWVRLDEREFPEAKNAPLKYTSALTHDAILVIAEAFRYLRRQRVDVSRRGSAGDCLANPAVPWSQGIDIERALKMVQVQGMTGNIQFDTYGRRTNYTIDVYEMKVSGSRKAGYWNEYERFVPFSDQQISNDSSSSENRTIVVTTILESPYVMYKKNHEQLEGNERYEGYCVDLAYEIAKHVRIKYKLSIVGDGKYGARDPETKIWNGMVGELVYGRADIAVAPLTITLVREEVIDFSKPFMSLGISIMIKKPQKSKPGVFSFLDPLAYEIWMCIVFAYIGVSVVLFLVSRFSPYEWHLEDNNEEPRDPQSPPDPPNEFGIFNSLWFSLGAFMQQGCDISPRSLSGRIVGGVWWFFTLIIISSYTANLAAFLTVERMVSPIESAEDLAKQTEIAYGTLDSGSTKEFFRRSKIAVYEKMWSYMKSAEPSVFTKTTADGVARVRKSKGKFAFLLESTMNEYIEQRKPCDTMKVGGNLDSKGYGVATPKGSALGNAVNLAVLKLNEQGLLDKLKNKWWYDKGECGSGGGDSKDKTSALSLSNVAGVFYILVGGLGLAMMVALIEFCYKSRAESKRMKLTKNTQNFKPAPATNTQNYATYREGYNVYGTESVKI
Mu-type opioid receptor, sequence (P33535 whole entry): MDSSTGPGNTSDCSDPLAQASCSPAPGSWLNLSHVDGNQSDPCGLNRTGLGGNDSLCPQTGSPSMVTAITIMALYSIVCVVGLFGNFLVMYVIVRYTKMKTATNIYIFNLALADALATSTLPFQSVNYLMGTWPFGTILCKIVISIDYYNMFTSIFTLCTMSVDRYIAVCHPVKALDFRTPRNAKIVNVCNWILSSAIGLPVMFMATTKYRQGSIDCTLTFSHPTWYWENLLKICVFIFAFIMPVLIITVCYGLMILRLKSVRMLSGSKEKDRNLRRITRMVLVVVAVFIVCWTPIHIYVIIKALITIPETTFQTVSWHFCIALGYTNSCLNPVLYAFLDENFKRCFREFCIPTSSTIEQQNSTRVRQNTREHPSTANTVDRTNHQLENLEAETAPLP
Beta-2 adrenergic receptor, sequence (P10608 whole entry): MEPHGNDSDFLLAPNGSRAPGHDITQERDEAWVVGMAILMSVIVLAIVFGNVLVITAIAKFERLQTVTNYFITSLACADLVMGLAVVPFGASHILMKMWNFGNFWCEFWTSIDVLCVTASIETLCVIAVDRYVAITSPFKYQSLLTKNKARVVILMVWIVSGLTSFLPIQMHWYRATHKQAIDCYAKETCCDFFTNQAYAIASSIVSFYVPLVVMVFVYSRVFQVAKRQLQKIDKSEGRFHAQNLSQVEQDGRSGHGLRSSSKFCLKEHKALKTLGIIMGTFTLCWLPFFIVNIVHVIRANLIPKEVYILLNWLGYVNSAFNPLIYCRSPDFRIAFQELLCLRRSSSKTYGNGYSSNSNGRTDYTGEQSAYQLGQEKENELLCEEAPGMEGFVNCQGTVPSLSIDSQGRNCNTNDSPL
D(2) dopamine receptor, sequence (P61169 whole entry): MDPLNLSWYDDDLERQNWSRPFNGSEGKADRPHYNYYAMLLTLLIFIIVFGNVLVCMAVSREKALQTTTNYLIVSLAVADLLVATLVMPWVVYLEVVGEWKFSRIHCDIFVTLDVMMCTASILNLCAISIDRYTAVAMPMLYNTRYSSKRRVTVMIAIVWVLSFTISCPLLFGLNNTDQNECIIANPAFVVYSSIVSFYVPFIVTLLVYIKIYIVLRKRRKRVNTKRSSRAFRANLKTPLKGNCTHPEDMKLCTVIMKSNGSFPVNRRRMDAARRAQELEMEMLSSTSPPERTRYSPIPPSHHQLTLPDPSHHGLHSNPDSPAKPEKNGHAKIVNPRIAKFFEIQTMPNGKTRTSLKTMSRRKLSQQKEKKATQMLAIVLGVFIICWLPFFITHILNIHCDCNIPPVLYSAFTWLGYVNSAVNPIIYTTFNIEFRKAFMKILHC
Gamma-aminobutyric acid receptor subunit alpha-1, sequence (P62813 whole entry): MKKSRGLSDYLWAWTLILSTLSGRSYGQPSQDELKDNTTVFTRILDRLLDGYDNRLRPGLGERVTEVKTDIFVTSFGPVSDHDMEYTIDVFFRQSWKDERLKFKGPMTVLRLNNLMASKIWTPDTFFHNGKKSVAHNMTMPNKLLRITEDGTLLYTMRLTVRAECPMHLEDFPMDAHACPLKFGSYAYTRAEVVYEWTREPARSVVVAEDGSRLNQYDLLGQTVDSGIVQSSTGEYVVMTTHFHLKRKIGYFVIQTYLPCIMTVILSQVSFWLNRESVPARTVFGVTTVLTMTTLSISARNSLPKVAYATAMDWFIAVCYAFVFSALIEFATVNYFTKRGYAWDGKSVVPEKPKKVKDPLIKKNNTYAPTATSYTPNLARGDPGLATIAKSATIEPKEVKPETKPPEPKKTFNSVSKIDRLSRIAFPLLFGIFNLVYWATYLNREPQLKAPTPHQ

On to `Cc1cccc(NC(=O)N[C@@H]2N=C(c3ccccc3)c3ccccc3N(CC(=O)c3ccccc3C)C2=O)c1`, for which the inhibitory constant (Ki) (at Mu-type opioid receptor; in assay [1]; on Histamine H1 receptor; in [2]; in assay [3]; at D(2) dopamine receptor) was > 10 µM each time. Further, the inhibitory constant (Ki) in [4], in [5], in assay [6], in assay [7], in assay [8] and in assay [9] was > 10 µM in each case. Moreover, the Ki (on D(1A) dopamine receptor; on Glutamate receptor 3; in assay [10]; in assay [11]) was > 10 µM throughout.
Turning to `Cc1cccc(NC(=O)N[C@H]2N=C(c3ccccc3)c3ccccc3N(CC(=O)c3ccccc3C)C2=O)c1` [YM022 S-isomer], in [12], the inhibition constant (Ki) is 0.14 µM and 0.49 µM.

The values are drawn from BindingDB's records for PubMed 7910212 (Yamanouchi Pharmaceutical, 1994).
